Test results as given in patent US5962314A, “Calcium receptor-active molecules” (priority 1997, dated 1999).
Entries after “also recorded” stand apart in the source; their conditions may differ.

Legend:
cyclic AMP = type: cell-based, bovine
Method: Cells were incubated as above for PTH secretion studies and at the end of the incubation, a 0.15-ml sample was taken and transferred to 0.85 ml of hot (70° C.) water and heated at this temperature for 5-10 minutes. The tubes were subsequently frozen and thawed several times and the cellular debris sedimented by centrifugation. Portions of the supernatant were acetylated and cyclic AMP concentrations determined by radioimmunoassay.
Each value is the mean±SEM of three experiments.

PTH = PTH levels in rats; type: in vivo, rat; conditions: NPS R-568 oral, rats
Text: The fall in blood Ca^2+ at this time was paralleled by a proportional fall in the levels of blood total calcium.

serum ionized calcium [1] = assay: serum ionized Ca2+ in rats; type: in vivo, rat; conditions: NPS R-568 oral
Method: Compounds shown to activate the bovine parathyroid cell calcium receptor in vitro were tested for hypocalcemic activity in vivo. Male Sprague-Dawley rats (200 g) were maintained on a low calcium diet for one week prior to receiving test substance or vehicle as control. Blood was collected from the tail vein three hours after the intra-peritoneal administration of NPS 467. […] Serum total calcium, albumin and phosphate were measured by techniques well known in the art.
Rats (male, Sprague-Dawley, 250-300 g) were fed standard rat chow and fasted overnight prior to the experiment. NPS R-467 was suspended in corn oil and administered as a single oral dose through a gavage needle. Three hours later a sample of blood was taken from the tail vein and assessed for ionized Ca^2+ levels.

serum ionized calcium [2] = assay: serum ionized Ca2+ in parathyroidectomized rats; type: in vivo, rat; conditions: NPS R-467 10 mg/kg i.p., 6 hours; NPS R-568 oral
Text: To determine the primary target tissue upon which NPS R-467 acts to cause a hypocalcemic response, the parathyroid glands in rats were surgically removed. Animals receiving a total parathyroidectomy become hypocalcemic and are largely dependent upon dietary calcium to maintain serum Ca^2+ homeostasis.

[3] = target: T1, parathyroid cell calcium receptor (Bos taurus, UniProt P35384); assay: Cl- current in Xenopus oocytes injected with bovine parathyroid cell mRNA; type: cell-based; design: Whole pieces of gland were used to prepare mRNA that directs the expression of the calcium receptor in Xenopus oocytes; expressed in transfected cells; host or cells: Xenopus laevis oocytes injected with parathyroid poly(A)+ mRNA; conditions: oocytes expressing parathyroid calcium receptor; fendiline 100 μM
T1 sequence (P35384 20-1085): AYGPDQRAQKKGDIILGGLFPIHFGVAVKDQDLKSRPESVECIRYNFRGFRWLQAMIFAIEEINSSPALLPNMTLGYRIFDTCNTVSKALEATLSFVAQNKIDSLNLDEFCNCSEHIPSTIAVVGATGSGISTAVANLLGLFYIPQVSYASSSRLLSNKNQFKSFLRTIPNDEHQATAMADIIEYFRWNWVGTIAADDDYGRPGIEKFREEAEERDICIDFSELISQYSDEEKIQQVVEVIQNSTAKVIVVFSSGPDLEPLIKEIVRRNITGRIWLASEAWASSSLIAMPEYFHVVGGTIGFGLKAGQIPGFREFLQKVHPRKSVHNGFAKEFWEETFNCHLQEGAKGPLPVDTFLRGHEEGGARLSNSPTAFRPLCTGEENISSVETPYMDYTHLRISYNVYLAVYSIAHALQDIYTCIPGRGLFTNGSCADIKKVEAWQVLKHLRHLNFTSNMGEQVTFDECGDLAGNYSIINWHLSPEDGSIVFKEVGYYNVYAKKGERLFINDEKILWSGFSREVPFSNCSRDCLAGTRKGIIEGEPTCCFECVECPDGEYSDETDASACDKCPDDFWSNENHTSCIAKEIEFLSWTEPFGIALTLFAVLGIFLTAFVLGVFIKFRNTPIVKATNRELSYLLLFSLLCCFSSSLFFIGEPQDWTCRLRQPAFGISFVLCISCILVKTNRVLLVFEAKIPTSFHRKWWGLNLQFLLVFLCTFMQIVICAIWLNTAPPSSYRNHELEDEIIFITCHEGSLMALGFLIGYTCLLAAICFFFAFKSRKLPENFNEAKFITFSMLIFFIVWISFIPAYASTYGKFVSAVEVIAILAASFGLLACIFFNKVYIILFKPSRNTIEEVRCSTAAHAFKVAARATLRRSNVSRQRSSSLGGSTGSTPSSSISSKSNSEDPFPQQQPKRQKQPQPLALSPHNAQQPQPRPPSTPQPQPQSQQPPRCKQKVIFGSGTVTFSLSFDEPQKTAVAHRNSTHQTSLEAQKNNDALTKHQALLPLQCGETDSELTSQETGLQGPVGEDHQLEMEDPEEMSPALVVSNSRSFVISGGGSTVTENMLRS
Method: Following incubation, an oocyte was placed into a 100-μl plastic chamber and superfused with MBS at a flow rate of 0.5 ml/min using a peristaltic pump. Test molecules or inorganic polycations were added by rapidly moving the tubing into different buffers. Recording and current-passing electrodes were constructed from thin-wall capillary tubing pulled to a resistance of 1-3 Mohms and filled with 3 M KCl. […] Currents were recorded directly onto a strip chart recorder.

serum calcium = assay: hypocalcemic response in thyroidectomized rats; type: in vivo, rat; conditions: 3 to 100 mg/kg p.o.
Text: In subsequent studies, rats received a thyroidectomy (parathyroid glands intact). This surgical procedure effectively removed the C-cells secreting calcitonin and therefore enabled the relative contributions of PTH and calcitonin to the hypocalcemic effect of this compound to be determined. […] The only difference was that the rate of onset of the hypqcalcemic response was somewhat delayed in thyroidectomized animals. […] Stimulatory effects of this compound on calcitonin secretion increases the rate of onset, but not the extent, of hypocalcemia.

Row | SMILES | effect on isoproterenol-induced increases in cyclic AMP (cyclic AMP) | effect on PTH, oral (PTH) | hypocalcemic response after complete nephrectomy (serum ionized calcium [1]; prior complete nephrectomy) | effect on serum Ca2+, oral (serum ionized calcium [1]; rats) | effect on serum ionized Ca2+ in parathyroidectomized rats (serum ionized calcium [2]) | effect on Cl- current / intracellular Ca2+ [3] | hypocalcemic response in thyroidectomized rats (serum calcium)
1 | NC[C@@H]1O[C@H](O[C@H]2[C@@H](O)[C@H](O[C@@H]3[C@@H](O)[C@H](N)C[C@H](N)[C@H]3O[C@H]3O[C@H](CN)[C@@H](O)[C@H](O)[C@H]3N)O[C@@H]2CO)[C@H](N)[C@@H](O)[C@@H]1O [Neomycin] | depressed isoproterenol-induced increases in cyclic AMP | – | – | – | – | – | –
2 | COc1cccc([C@@H](C)NCCCc2ccccc2Cl)c1 [NPS R-568, (R)-(+)-N-[3-(2-chlorophenyl)propyl]-α-methyl-3-methoxybenzylamine] | – | rapid, dose-dependent decrease in the plasma levels of PTH; also recorded: decreases in the levels of serum PTH | only marginally affected | dose-dependent decrease in the levels of serum Ca^2+ | fails to elicit a hypocalcemic response | potent molecule active on Xenopus oocytes expressing the parathyroid cell calcium receptor | hypocalcemic response equal in magnitude to that produced in sham-operated animals
